These results are taken from US11214563B2 (JANSSEN PHARMACEUTICA NV, priority 2019, dated 2022).

Series [1] deals with human GluN1/GluN2B NMDA receptors (Homo sapiens (Human), UniProt Q05586+Q13224). Briefly: Cell-based calcium flux (FLIPR) assay on cloned human NR1/NR2B ion channels expressed in mammalian cells. To be noted: standard assay, glutamate ~EC40, 10 μM glycine. On the procedure: (§1) Effects of Test Articles on Cloned Human NR1/NR2B Ion Channels Expressed in Mammalian Cells
(§2) NMDA receptors are ion channels that are highly permeable to Ca^2+ ions, rendering it possible to monitor NMDA receptor function using cell-based calcium flux assay. In this assay, co-agonists glutamate and glycine are added to cells heterologously expressing human GluN1/GluN2B NMDA receptors to initiate cellular Ca^2+ influx. The time course of the changes in intracellular calcium is measured using a fluorescent dye and a FLIPR (Fluorometric Imaging Plate Reader) device.
(§3) Twenty four hours before measurements, the expression of the NMDA receptors in the stable cell line is induced with Tet-On inducible system in the presence of a non-selective NMDA receptor blocker. On the day of the experiment, cell culture media is carefully washed and the cells are loaded with Calcium 5 Dye Kit (Molecular Devices) in dye loading buffer containing 137 mM NaCl, 4 mM KCl, 2 mM CaCl2), 0.5 mM MgCl2(standard assay) or 1.5 mM MgCl2 (HTS assay), 10 mM HEPES and 5 mM D-glucose; pH 7.4. After 1 h incubation at the room temperature, the dye is washed away with the assay buffer (137 mM NaCl (standard assay) or 150 mM (HTS assay), 4 mM KCl (standard assay) or 3 mM (HTS assay), 2 mM CaCl2), 0.01 mM EDTA, 10 mM HEPES and 5 mM D-glucose; pH 7.4) In the FLIPR TETRA reader, various concentrations of the test compounds are added to the cells for 5 min while fluorescence is monitored to detect potential agonist activity. Next, co-agonists, glutamate and glycine are added for another 5 minutes. The concentration of glutamate corresponding to ˜EC40 (standard assay) or EC40 (HTS assay) is used to maximize the assay's signal window and ability to detect NMDA receptor antagonists and negative allosteric modulators. A saturating concentration (10 μM) of glycine is also present in the assay. A non-selective NMDA receptor antagonist, (+)MK-801 is used as a positive control for antagonist activity. The fluorescent signal in the presence of test compounds is quantified and normalized to the signal defined by the appropriate control wells.

Series [2] in a line: Liver microsomal stability (extraction ratio). To be noted: test compound 1 μM; 0.5 mg/mL liver microsomes; species not stated in Table 4 (method: mouse, rat, and human). It counts as in vitro ADME. On the procedure:
Protocol for Liver Microsomal Stability (Extraction Ratio)
Liver Microsomal Stability. Microsomal stability studies (Chrovian et al, “H-Pyrrolo[3,2-b]pyridine GluN2B-Selective Negative Allosteric Modulators”. ACS Med Chem Lett. 2019 Jan. 10; 10(3):261-266) were conducted on a Biomek@ FX Robotic Liquid Handling Workstation (Beckman Coulter, Brea, Calif.), which consists of a 96-channel pipette head, a 12-position workstation deck, and a plate incubator. Test compounds (1 μM) were spiked in a reaction mix consisting of 100 mM potassium phosphate buffer (pH 7.4), 3 mM MgCl2, and 0.5 mg/mL liver microsomes from mouse, rat, and human (BD Gentest). The reaction was brought to 37° C. and initiated by adding NADPH to a final concentration of 1 mM. After mixing on the plate deck, […] aliquots were excised from the reaction plate at 0, 5, 10, 20, 40, and 60 min and quenched with four volumes of acetonitrile spiked with […] of the internal standard phenytoin. Quenched plates were centrifuged at 5700 rpm for 10 min at 4° C., and supernatant was diluted 1:3 in water before LC/MS/MS analysis. The compound half-lives were derived from plots of the ln of percent remaining compound over time to determine the intrinsic clearance. The predicted hepatic clearance was derived from the intrinsic clearance value using equations from the well-stirred model (Current Drug Metabolism, 2008, 9, 940-951), where no correction was made plasma protein binding and the blood to plasma concentration ratio was assumed to be one. The extraction ratio (ER) was calculated by dividing the predicted hepatic clearance by species blood flow (Q), where Q is 90, 55, and 21.7 mL/min/kg for mouse, rat and human, respectively

Series [3] concerns the target human GluN1/GluN2B NMDA receptors (Homo sapiens (Human), UniProt Q13224). Put plainly: Cell-based calcium flux (FLIPR) assay on cloned human NR1/NR2B ion channels expressed in mammalian cells. To be noted: standard assay, glutamate ~EC40, 10 μM glycine. On the procedure: as §1, §2, §3
A general note: Calcium flux is commonly read through the fluorescence of an indicator in the cells.

human GluN1/GluN2B NMDA receptors (Homo sapiens (Human), UniProt Q05586+Q13224), sequence (Q13224 27-1484, other chains not shown): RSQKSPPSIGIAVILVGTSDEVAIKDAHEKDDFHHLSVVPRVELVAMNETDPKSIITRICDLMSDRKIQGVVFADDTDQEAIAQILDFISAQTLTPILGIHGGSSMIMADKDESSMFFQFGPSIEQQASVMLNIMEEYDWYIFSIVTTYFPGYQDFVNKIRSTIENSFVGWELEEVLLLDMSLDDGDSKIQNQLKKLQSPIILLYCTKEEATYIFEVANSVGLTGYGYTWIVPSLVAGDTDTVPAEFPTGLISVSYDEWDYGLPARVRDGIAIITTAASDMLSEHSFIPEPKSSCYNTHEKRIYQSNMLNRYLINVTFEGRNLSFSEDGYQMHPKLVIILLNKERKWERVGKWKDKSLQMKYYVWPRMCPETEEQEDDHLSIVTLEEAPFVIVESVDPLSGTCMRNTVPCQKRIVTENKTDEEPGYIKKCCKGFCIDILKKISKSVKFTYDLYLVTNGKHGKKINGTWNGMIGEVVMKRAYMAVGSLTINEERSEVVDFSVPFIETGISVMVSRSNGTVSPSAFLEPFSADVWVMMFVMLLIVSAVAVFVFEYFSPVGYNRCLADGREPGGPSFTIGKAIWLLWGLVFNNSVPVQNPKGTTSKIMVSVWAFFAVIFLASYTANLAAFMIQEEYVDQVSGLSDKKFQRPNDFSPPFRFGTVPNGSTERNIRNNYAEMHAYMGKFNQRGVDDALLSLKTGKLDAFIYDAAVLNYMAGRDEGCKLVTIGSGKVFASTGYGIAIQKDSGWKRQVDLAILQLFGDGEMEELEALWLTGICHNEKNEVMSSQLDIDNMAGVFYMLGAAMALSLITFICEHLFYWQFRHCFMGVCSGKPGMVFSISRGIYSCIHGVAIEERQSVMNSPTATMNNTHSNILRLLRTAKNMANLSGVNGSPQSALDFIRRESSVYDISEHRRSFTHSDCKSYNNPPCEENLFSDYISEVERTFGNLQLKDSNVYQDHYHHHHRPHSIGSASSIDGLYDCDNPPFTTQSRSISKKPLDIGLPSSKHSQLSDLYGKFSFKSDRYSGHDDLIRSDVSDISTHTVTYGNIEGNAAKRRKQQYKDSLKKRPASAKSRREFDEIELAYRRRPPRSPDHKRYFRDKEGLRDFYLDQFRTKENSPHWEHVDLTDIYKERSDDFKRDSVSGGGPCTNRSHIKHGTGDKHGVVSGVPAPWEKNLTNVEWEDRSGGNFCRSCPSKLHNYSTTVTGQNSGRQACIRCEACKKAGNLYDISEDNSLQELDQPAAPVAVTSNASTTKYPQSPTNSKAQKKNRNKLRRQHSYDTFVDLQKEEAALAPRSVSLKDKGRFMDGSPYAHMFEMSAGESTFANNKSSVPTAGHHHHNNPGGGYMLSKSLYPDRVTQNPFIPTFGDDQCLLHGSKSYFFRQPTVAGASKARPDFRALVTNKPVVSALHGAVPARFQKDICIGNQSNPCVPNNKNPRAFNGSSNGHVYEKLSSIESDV
human GluN1/GluN2B NMDA receptors (Homo sapiens (Human), UniProt Q13224), sequence (Q13224 27-1484, other chains not shown): as above

Broadly, the IC50 is the concentration that gives 50% inhibition. Consider `CN(C)C(=O)Cn1ncc2ncc(-c3ccc(Cl)c(F)c3)nc21` [Example 5, 2-[6-(4-Chloro-3-fluoro-phenyl)pyrazolo[3,4-b]pyrazin-1-yl]-N,N-dimethyl-acetamide], for which the IC50 in series [1] stood at 827 nM.
On to `Cc1ccc(-c2cnc3cnn(CC(=O)N(C)C)c3n2)cc1F` [Example 6, 2-[6-(3-Fluoro-4-methyl-phenyl)pyrazolo[3,4-b]pyrazin-1-yl]-N,N-dimethyl-acetamide], for which the concentration for half-maximal inhibition (IC50) in series [1] was found to be 916 nM.
With `CN(C)C(=O)Cn1ncc2ncc(-c3ccc(F)c(C(F)F)c3)nc21` [Example 10, 2-[6-[3-(Difluoromethyl)-4-fluoro-phenyl]pyrazolo[3,4-b]pyrazin-1-yl]-N,N-dimethyl-acetamide], the IC50 in series [1] came to 42 nM. The “Extraction Ratio @ 1 μM” value in series [2] amounted to 0.41.
Regarding `CN(C)C(=O)Cn1nc(F)c2ncc(-c3ccc(F)c(C(F)F)c3)nc21` [Example 11, 2-[6-[3-(Difluoromethyl)-4-fluoro-phenyl]-3-fluoro-pyrazolo[3,4-b]pyrazin-1-yl]-N,N-dimethyl-acetamide], in series [1], the IC50 was determined as 59 nM.
For `CN(C)C(=O)Cn1ncc2ncc(-c3ccc(Cl)c(C(F)F)c3)nc21` [Example 12, 2-[6-[4-Chloro-3-(difluoromethyl)phenyl]pyrazolo[3,4-b]pyrazin-1-yl]-N,N-dimethyl-acetamide], in series [1], the IC50 was 36 nM. Moreover, the “Extraction Ratio @ 1 μM” value in series [2] stood at 0.54.
With `CN(C)C(=O)Cn1ncc2ncc(-c3ccc(F)c(OC(F)F)c3)nc21` [Example 16, 2-[6-[3-(Difluoromethoxy)-4-fluoro-phenyl]pyrazolo[3,4-b]pyrazin-1-yl]-N,N-dimethyl-acetamide], the 50% inhibitory concentration (IC50) in series [1] amounted to 72 nM.
For the compound `CN(C)C(=O)Cn1ncc2ncc(-c3ccc(Cl)c(OC(F)F)c3)nc21` [Example 18, 2-[6-[4-Chloro-3-(difluoromethoxy)phenyl]pyrazolo[3,4-b]pyrazin-1-yl]-N,N-dimethyl-acetamide], the concentration for half-maximal inhibition (IC50) in series [1] was 64 nM.
Turning to `Cc1c(F)cc(-c2cnc3cnn(CC(=O)N(C)C)c3n2)cc1F` [Example 20, 2-[6-(3,5-Difluoro-4-methyl-phenyl)pyrazolo[3,4-b]pyrazin-1-yl]-N,N-dimethyl-acetamide], in series [1], the 50% inhibitory concentration (IC50) was found to be 907 nM.
As to `CN(C)C(=O)Cn1ncc2ncc(-c3cc(F)c(F)c(F)c3)nc21` [Example 22, N,N-Dimethyl-2-[6-(3,4,5-trifluorophenyl)pyrazolo[3,4-b]pyrazin-1-yl]acetamide], the half-inhibitory concentration (IC50) in series [1] worked out at 489 nM.
With `O=C(Cn1ncc2ncc(-c3ccc(F)c(C(F)F)c3)nc21)N1CCC1` [Example 24, 1-(Azetidin-1-yl)-2-[6-[3-(difluoromethyl)-4-fluoro-phenyl]pyrazolo[3,4-b]pyrazin-1-yl]ethanone], the IC50 in series [1] was 37 nM. In series [2], the “Extraction Ratio @ 1 μM” value was under 0.298.
For `CC(F)(F)c1cc(-c2cnc3cnn(CC(=O)N4CCC4)c3n2)ccc1F` [Example 27, 1-(Azetidin-1-yl)-2-[6-[3-(1,1-difluoroethyl)-4-fluoro-phenyl]pyrazolo[3,4-b]pyrazin-1-yl]ethanone], the half-maximal inhibitory concentration (IC50) in series [1] was 126 nM.
Take `O=C(Cn1ncc2ncc(-c3ccc(F)c(OC(F)F)c3)nc21)N1CCC1` [Example 28, 1-(Azetidin-1-yl)-2-[6-[3-(difluoromethoxy)-4-fluoro-phenyl]pyrazolo[3,4-b]pyrazin-1-yl]ethanone]: the 50% inhibitory concentration (IC50) in series [3] is 59 nM. In addition, the “Extraction Ratio @ 1 μM” value in series [2] is 0.45.
Take `CC1CN(C(=O)Cn2ncc3ncc(-c4ccc(F)c(C(F)F)c4)nc32)C1` [Example 30, 2-[6-[3-(Difluoromethyl)-4-fluoro-phenyl]pyrazolo[3,4-b]pyrazin-1-yl]-1-(3-methylazetidin-1-yl)ethanone]: the concentration for half-maximal inhibition (IC50) in series [1] is 122 nM.
As to `O=C(Cn1ncc2ncc(-c3ccc(F)c(C(F)F)c3)nc21)N1CC(F)C1` [Example 32, 2-[6-[3-(Difluoromethyl)-4-fluoro-phenyl]pyrazolo[3,4-b]pyrazin-1-yl]-1-(3-fluoroazetidin-1-yl)ethanone], the half-maximal inhibitory concentration (IC50) in series [1] came out at 37 nM. The “Extraction Ratio @ 1 μM” value in series [2] is under 0.298.
Consider `O=C(Cn1ncc2ncc(-c3ccc(F)c(OC(F)F)c3)nc21)N1CC(F)C1` [Example 37, 2-[6-[3-(Difluoromethoxy)-4-fluoro-phenyl]pyrazolo[3,4-b]pyrazin-1-yl]-1-(3-fluoroazetidin-1-yl)ethanone], for which, in series [3], the IC50 worked out at 92 nM. For the same compound, the “Extraction Ratio @ 1 μM” value in series [2] is 0.46.
Take `Cc1nnc(Cn2ncc3ncc(-c4ccc(F)c(C(F)F)c4)nc32)o1` [Example 40, 2-[[6-[3-(Difluoromethyl)-4-fluoro-phenyl]pyrazolo[3,4-b]pyrazin-1-yl]methyl]-5-methyl-1,3,4-oxadiazole]: the half-inhibitory concentration (IC50) in series [1] was 158 nM.
Regarding `N#Cc1cncc(Cn2ncc3ncc(-c4ccc(F)c(C(F)F)c4)nc32)c1` [Example 45, 5-[[6-[3-(Difluoromethyl)-4-fluoro-phenyl]pyrazolo[3,4-b]pyrazin-1-yl]methyl]pyridine-3-carbonitrile], the IC50 in series [1] was 285 nM.
Take `O=C1NCC(Cn2ncc3ncc(-c4ccc(F)c(OC(F)F)c4)nc32)O1` (stereo not shown) [Example 51, 5-((6-(3-(Difluoromethoxy)-4-fluorophenyl)-1H-pyrazolo[3,4-b]pyrazin-1-yl)methyl)oxazolidin-2-one]: the half-maximal inhibitory concentration (IC50) in series [1] was over 3000 nM.
As for `CN(C)C(=O)Cn1ncc2ncc(-c3ccc(C(C)(F)F)cc3)nc21` [Example 53, 2-(6-(4-(1,1-Difluoroethyl)phenyl)-1H-pyrazolo[3,4-b]pyrazin-1-yl)-N,N-dimethylacetamide], the IC50 in series [1] is over 3000 nM.
